Results taken from the CheMixHub drug solubility set.

Experiment: xn = mol fraction of the nth substance listed, in the solute-free solvent

CCCCN1CCCCC1C(=O)Nc1c(C)cccc1C.Cl.O (configuration not stated) + CCO + O
solubility (g/100 g solution)
Conditions | 293.15 K | 298.15 K | 303.15 K | 308.15 K | 313.15 K | 318.15 K | 323.15 K | 328.15 K | 333.15 K
x2 = 0.1 | 3.04 | 3.34 | 4.11 | 4.86 | 5.9 | 7.35 | 9.3 | 11.2 | 12.9
x2 = 0.2 | 3.1 | 3.37 | 4.04 | 4.84 | 6.41 | 7.92 | 10.1 | 12.9 | 15.1
x2 = 0.3 | 2.9 | 3.27 | 3.99 | 5.42 | 7.36 | 9.56 | 12.4 | 15.8 | 19
x2 = 0.4 | 2.85 | 3.29 | 4.28 | 5.77 | 7.83 | 10.9 | 14.2 | 18.3 | 22.9
x2 = 0.5 | 2.81 | 3.22 | 4.31 | 5.96 | 8.48 | 11.3 | 14.9 | 19.4 | 23.9
x2 = 0.6 | 3.15 | 3.43 | 4.62 | 6.22 | 8.61 | 11.5 | 15.1 | 19.4 | 23.7
x2 = 0.7 | 3.44 | 3.95 | 5.29 | 7.07 | 9.34 | 12.3 | 16.1 | 20.6 | 25
x2 = 0.8 | 3.84 | 4.16 | 5.55 | 7.29 | 9.54 | 12.4 | 15.9 | 20.2 | 24.7
x2 = 0.9 | 3.83 | 4.34 | 5.57 | 7.26 | 9.51 | 12.2 | 15.5 | 19.6 | 24

COC(=O)C1=C(C)NC(C)=C(C(=O)OCC(C)C)C1c1ccccc1[N+](=O)[O-] (configuration not stated) + CCOC(C)=O + CCO
solubility (g/100 g solution)
Conditions | 278.15 K | 283.15 K | 288.15 K | 293.15 K | 298.15 K | 303.15 K | 308.15 K | 313.15 K | 318.15 K
x2 = 0.05491 | 3.09 | 3.87 | 4.65 | 5.7 | 6.64 | 8.03 | 9.37 | 11.1 | 12.9
x2 = 0.1156 | 3.98 | 4.79 | 5.78 | 6.75 | 8.13 | 9.47 | 11 | 12.8 | 14.5
x2 = 0.1831 | 4.91 | 5.89 | 6.97 | 8.15 | 9.36 | 10.8 | 12.3 | 14 | 15.7
x2 = 0.2585 | 5.53 | 6.46 | 7.49 | 8.75 | 10 | 11.5 | 13 | 14.7 | 16.6
x2 = 0.3434 | 5.99 | 6.94 | 8.09 | 9.33 | 10.6 | 12 | 13.7 | 15.3 | 17.2
x2 = 0.4396 | 6.34 | 7.36 | 8.52 | 9.66 | 11.2 | 12.6 | 14.2 | 15.9 | 17.7
x2 = 0.5496 | 6.6 | 7.63 | 8.77 | 10.1 | 11.4 | 12.8 | 14.4 | 16.1 | 18
x2 = 0.6765 | 6.76 | 7.78 | 8.91 | 10.2 | 11.5 | 13.1 | 14.7 | 16.3 | 18.2
x2 = 0.8247 | 6.8 | 7.86 | 9.01 | 10.2 | 11.6 | 13.1 | 14.6 | 16.3 | 18.2
